Data from patent publication US9938261B2, “Heterocyclic compounds and methods of use thereof” (AMBIT BIOSCIENCES CORPORATION, priority 2011, dated 2018).

Legend:
PDGFRβ = biological target: T1, PDGFRβ (Homo sapiens, UniProt P09619); experiment: Competition binding assay, PDGFRβ Kd
T1 construct: made in house
Outline: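 Read-out is quantitative PCR of kinase recovered from affinity beads after competition with test compound. Binding reached equilibrium over 1 hour at room temperature; Kd values come from eleven-point threefold serial dilutions.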

CSF1R = CSF1R (Homo sapiens, UniProt P07333); experiment: HEK293 CSF1R phosphorylation MSD assay; format: cell-based; design: expressed in transfected cells; host or cells: HEK293; settings: 2 h compound, human M-CSF 50 ng/mL for 5 min; read-out: HEK293 pCSF1R M-CSF MSD:IC50
CSF1R, sequence (P07333 20-972): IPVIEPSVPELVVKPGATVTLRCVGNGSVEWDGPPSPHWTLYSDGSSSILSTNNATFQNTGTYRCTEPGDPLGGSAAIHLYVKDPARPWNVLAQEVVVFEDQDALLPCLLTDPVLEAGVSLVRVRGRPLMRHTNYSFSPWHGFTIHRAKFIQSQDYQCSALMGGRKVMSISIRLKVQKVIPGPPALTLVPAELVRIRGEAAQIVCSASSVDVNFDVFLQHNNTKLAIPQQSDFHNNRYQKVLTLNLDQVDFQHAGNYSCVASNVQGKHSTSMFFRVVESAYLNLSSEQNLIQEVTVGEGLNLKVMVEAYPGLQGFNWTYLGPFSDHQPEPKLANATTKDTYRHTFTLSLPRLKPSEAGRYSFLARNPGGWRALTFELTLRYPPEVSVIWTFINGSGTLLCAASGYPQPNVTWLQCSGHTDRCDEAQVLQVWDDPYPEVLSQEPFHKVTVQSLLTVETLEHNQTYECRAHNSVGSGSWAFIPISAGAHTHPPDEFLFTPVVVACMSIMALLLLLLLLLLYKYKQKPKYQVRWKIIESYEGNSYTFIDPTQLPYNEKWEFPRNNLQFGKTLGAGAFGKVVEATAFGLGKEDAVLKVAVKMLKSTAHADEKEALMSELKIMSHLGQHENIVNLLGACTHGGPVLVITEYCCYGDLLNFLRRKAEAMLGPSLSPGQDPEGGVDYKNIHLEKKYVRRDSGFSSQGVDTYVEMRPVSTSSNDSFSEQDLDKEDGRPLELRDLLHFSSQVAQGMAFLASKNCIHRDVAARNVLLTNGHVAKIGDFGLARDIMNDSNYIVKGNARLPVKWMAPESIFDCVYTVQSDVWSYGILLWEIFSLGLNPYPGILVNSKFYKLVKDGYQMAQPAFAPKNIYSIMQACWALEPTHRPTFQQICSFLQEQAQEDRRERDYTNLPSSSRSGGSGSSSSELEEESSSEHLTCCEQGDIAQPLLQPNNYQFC
Outline: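 Ligand-induced CSF1R autophosphorylation was measured by MSD sandwich assay: CSF1R-FKBP from lysates captured via FK506, anti-phosphotyrosine readout. Cells were exposed to compound for 2 h (9-point, half-log, 0.5% DMSO) before 5 min 50 ng/mL M-CSF. Reported IC50 is the mean of duplicate-plate IC50s relative to DMSO control.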

T1 sequence (P09619 33-1106): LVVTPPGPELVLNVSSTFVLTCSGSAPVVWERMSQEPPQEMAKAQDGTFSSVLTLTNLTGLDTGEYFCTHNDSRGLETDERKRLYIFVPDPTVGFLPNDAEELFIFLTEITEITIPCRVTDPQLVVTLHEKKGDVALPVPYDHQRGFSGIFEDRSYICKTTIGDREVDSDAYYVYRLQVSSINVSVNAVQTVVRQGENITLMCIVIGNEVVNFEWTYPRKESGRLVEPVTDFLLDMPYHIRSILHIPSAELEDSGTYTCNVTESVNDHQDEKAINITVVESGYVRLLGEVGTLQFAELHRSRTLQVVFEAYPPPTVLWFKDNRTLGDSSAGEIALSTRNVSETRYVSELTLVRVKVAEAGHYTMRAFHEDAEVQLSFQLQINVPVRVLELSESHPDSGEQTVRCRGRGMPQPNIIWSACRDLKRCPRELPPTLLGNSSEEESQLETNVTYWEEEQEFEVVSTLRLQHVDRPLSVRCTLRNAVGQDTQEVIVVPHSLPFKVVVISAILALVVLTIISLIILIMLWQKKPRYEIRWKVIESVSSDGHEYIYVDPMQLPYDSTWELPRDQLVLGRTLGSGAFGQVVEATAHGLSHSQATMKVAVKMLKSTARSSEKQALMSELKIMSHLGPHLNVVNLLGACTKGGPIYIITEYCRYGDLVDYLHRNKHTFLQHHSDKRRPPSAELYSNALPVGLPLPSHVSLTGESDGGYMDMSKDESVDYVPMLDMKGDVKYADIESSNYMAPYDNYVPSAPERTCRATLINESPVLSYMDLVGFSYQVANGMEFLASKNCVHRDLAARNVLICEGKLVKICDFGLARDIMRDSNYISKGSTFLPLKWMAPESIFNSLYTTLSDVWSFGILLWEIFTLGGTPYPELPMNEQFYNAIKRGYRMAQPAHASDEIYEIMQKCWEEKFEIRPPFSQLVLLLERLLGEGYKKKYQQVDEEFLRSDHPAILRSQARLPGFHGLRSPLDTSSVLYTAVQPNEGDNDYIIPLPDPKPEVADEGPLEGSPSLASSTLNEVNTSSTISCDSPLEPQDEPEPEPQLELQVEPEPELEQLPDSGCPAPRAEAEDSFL

## COc1cc2ncn(Cc3ccc4nc(N[C@@H]5CCCCC[C@H]5O)sc4c3)c2cc1OC (racemic) [Example 50, (±)-2-((6-((5,6-dimethoxy-1H-benzo[d]imidazol-1-yl)methyl)benzo[d]thiazol-2-yl)amino)cycloheptanol]
PDGFRβ
  Kd: ≤ 50 nM
CSF1R
  IC50: ≤ 50 nM

## CS(=O)(=O)O.O[C@@H]1CCCC[C@H]1Nc1nc2ccc(Cn3cnc4cccnc43)cc2s1 [Example 3, (1R,2R)-2-((6-((3H-imidazo[4,5-b]pyridin-3-yl)methyl)benzo[d]thiazol-2-yl)amino)cyclohexanol methanesulfonic acid]
PDGFRβ
  Kd: 50 to 500 nM
CSF1R
  IC50: 50 to 200 nM

## COc1cc2ncn(Cc3ccc4nc(N[C@@H](C)C5CCCCC5)sc4c3)c2cc1OC [Example 33, (S)—N-(1-cyclohexylethyl)-6-((5,6-dimethoxy-1H-benzo[d]imidazol-1-yl)methyl)benzo[d]thiazol-2-amine]
PDGFRβ
  Kd: ≤ 50 nM
CSF1R
  IC50: 50 to 200 nM

## COc1cc2ncn(Cc3ccc4nc(N[C@@H]5CCCC[C@H]5O)oc4c3)c2cc1OC [Example 34, (1R,2R)-2-((6-((5,6-dimethoxy-1H-benzo[d]imidazol-1-yl)methyl)benzo[d]oxazol-2-yl)amino)cyclohexanol]
PDGFRβ
  Kd: 50 to 500 nM
CSF1R
  IC50: 50 to 200 nM

## COc1cc2ncn(Cc3ccc4nc(NCC5CCCCC5)oc4c3)c2cc1OC [Example 35, N-(cyclohexylmethyl)-6-((5,6-dimethoxy-1H-benzo[d]imidazol-1-yl)methyl)benzo[d]oxazol-2-amine]
PDGFRβ
  Kd: ≤ 50 nM
CSF1R
  IC50: ≤ 50 nM

## Cn1cc(-c2cn(Cc3ccc4nc(N[C@@H]5CCCC[C@H]5O)sc4c3)cn2)cn1 [Example 36, (1R,2R)-2-((6-((4-(1-methyl-1H-pyrazol-4-yl)-1H-imidazol-1-yl)methyl)benzo[d]thiazol-2-yl)amino)cyclohexanol]
PDGFRβ
  Kd: > 2000 nM
CSF1R
  IC50: 50 to 200 nM

## CNC(=O)c1cn(Cc2ccc3nc(N[C@@H]4CCCC[C@H]4O)sc3c2)cn1 [Example 37, 1-((2-(((1R,2R)-2-hydroxycyclohexyl)amino)benzo[d]thiazol-6-yl)methyl)-N-methyl-1H-imidazole-4-carboxamide]
PDGFRβ
  Kd: > 2000 nM
CSF1R
  IC50: > 500 nM

## O[C@@H]1CCCC[C@H]1Nc1nc2ccc(Cc3cnc4ccccn34)cc2s1 [Example 38, (1R,2R)-2-((6-(imidazo[1,2-a]pyridin-3-ylmethyl)benzo[d]thiazol-2-yl)amino)cyclohexanol]
PDGFRβ
  Kd: > 2000 nM
CSF1R
  IC50: 200 to 500 nM

## Cn1cc(-c2cnc3c(c2)ncn3Cc2ccc3nc(N[C@@H]4CCCC[C@H]4O)sc3c2)cn1 [Example 39, (1R,2R)-2-((6-((6-(1-methyl-1H-pyrazol-4-yl)-3H-imidazo[4,5-b]pyridin-3-yl)methyl)benzo[d]thiazol-2-yl)amino)cyclohexanol]
PDGFRβ
  Kd: ≤ 50 nM
CSF1R
  IC50: ≤ 50 nM

## O[C@@H]1CCCC[C@H]1Nc1nc2ccc(Cn3cnc4cc(-c5cccnc5)cnc43)cc2s1 [Example 40, (1R,2R)-2-((6-((6-(pyridin-3-yl)-3H-imidazo[4,5-b]pyridin-3-yl)methyl)benzo[d]thiazol-2-yl)amino)cyclohexanol]
PDGFRβ
  Kd: ≤ 50 nM
CSF1R
  IC50: ≤ 50 nM

## COc1cc2c(cc1Br)ncn2Cc1ccc2nc(N[C@@H]3CCCC[C@H]3O)sc2c1 [Example 41, (1R,2R)-2-((6-((5-bromo-6-methoxy-1H-benzo[d]imidazol-1-yl)methyl)benzo[d]thiazol-2-yl)amino)cyclohexanol]
PDGFRβ
  Kd: 500 to 2000 nM
CSF1R
  IC50: 50 to 200 nM

## O[C@@H]1Cc2ccccc2[C@H]1Nc1nc2ccc(Cn3cnc4cc(Br)cnc43)cc2s1 [Example 42, (1R,2R)-1-((6-((6-bromo-3H-imidazo[4,5-b]pyridin-3-yl)methyl)benzo[d]thiazol-2-yl)amino)-2,3-dihydro-1H-inden-2-ol]
PDGFRβ
  Kd: ≤ 50 nM
CSF1R
  IC50: 50 to 200 nM

## N#Cc1cnc2c(c1)ncn2Cc1ccc2nc(N[C@@H]3CCCC[C@H]3O)sc2c1 [Example 43, 3-((2-(((1R,2R)-2-hydroxycyclohexyl)amino)benzo[d]thiazol-6-yl)methyl)-3H-imidazo[4,5-b]pyridine-6-carbonitrile]
PDGFRβ
  Kd: 50 to 500 nM
CSF1R
  IC50: 50 to 200 nM

## COc1ccn2c(Cc3ccc4nc(N[C@@H]5CCCC[C@H]5O)sc4c3)cnc2c1 [Example 44, (1R,2R)-2-((6-((7-methoxyimidazo[1,2-a]pyridin-3-yl)methyl)benzo[d]thiazol-2-yl)amino)cyclohexanol]
PDGFRβ
  Kd: 500 to 2000 nM
CSF1R
  IC50: 50 to 200 nM

## O[C@@H]1CCCC[C@H]1Nc1nc2ccc(Cn3cnc4cc(C5CC5)cnc43)cc2s1 [Example 45, (1R,2R)-2-((6-((6-cyclopropyl-3H-imidazo[4,5-b]pyridin-3-yl)methyl)benzo[d]thiazol-2-yl)amino)cyclohexanol]
PDGFRβ
  Kd: ≤ 50 nM
CSF1R
  IC50: ≤ 50 nM

## O[C@@H]1Cc2ccccc2[C@H]1Nc1nc2ccc(Cn3cnc4cccnc43)cc2s1 [Example 46, (1R,2R)-1-((6-((3H-imidazo[4,5-b]pyridin-3-yl)methyl)benzo[d]thiazol-2-yl)amino)-2,3-dihydro-1H-inden-2-ol]
PDGFRβ
  Kd: ≤ 50 nM
CSF1R
  IC50: 50 to 200 nM

## COc1cc2ncn(Cc3ccc4nc(N[C@@H]5CCCC[C@H]5O)sc4c3)c2cc1Br [Example 47, (1R,2R)-2-((6-((6-bromo-5-methoxy-1H-benzo[d]imidazol-1-yl)methyl)benzo[d]thiazol-2-yl)amino)cyclohexanol]
PDGFRβ
  Kd: 50 to 500 nM
CSF1R
  IC50: 50 to 200 nM

## O[C@@H]1CCCC[C@H]1Nc1nc2ccc(Cn3cnc4cncnc43)cc2s1 [Example 48, (1R,2R)-2-((6-((9H-purin-9-yl)methyl)benzo[d]thiazol-2-yl)amino)cyclohexanol]
PDGFRβ
  Kd: 50 to 500 nM
CSF1R
  IC50: 50 to 200 nM

## COc1cc2c(cc1Br)ncn2Cc1ccc2nc(N[C@@H]3c4ccccc4C[C@H]3O)sc2c1 [Example 49, (1R,2R)-1-((6-((5-bromo-6-methoxy-1H-benzo[d]imidazol-1-yl)methyl)benzo[d]thiazol-2-yl)amino)-2,3-dihydro-1H-inden-2-ol]
PDGFRβ
  Kd: 500 to 2000 nM
CSF1R
  IC50: 200 to 500 nM

## COc1cc2c(cc1-c1cnn(C)c1)ncn2Cc1ccc2nc(N[C@@H]3CCCC[C@H]3O)sc2c1 [Example 51, (1R,2R)-2-((6-((6-methoxy-5-(1-methyl-1H-pyrazol-4-yl)-1H-benzo[d]imidazol-1-yl)methyl)benzo[d]thiazol-2-yl)amino)cyclohexanol]
PDGFRβ
  Kd: ≤ 50 nM
CSF1R
  IC50: ≤ 50 nM

## COc1cc2ncn(Cc3ccc4nc(N[C@@H]5CCCC[C@H]5O)sc4c3)c2cc1-c1cnn(C)c1 [Example 52, (1R,2R)-2-((6-((5-methoxy-6-(1-methyl-1H-pyrazol-4-yl)-1H-benzo[d]imidazol-1-yl)methyl)benzo[d]thiazol-2-yl)amino)cyclohexanol]
PDGFRβ
  Kd: 50 to 500 nM
CSF1R
  IC50: ≤ 50 nM

## COc1cc2ncn(Cc3ccc4nc(N[C@@H]5CCCC[C@H]5O)sc4c3)c2cc1C#N [Example 53, 1-((2-(((1R,2R)-2-hydroxycyclohexyl)amino)benzo[d]thiazol-6-yl)methyl)-5-methoxy-1H-benzo[d]imidazole-6-carbonitrile]
PDGFRβ
  Kd: 50 to 500 nM
CSF1R
  IC50: ≤ 50 nM

## O=C1CCCC[C@H]1Nc1nc2ccc(Cn3cnc4cccnc43)cc2s1 [Example 54, (R)-2-((6-((3H-imidazo[4,5-b]pyridin-3-yl)methyl)benzo[d]thiazol-2-yl)amino)cyclohexanone]
PDGFRβ
  Kd: 50 to 500 nM
CSF1R
  IC50: 50 to 200 nM

## O[C@@H]1CCCC[C@H]1Nc1nc2ccc(Cn3cnc4cc(Cl)cnc43)cc2s1 [Example 55, (1R,2R)-2-((6-((6-chloro-3H-imidazo[4,5-b]pyridin-3-yl)methyl)benzo[d]thiazol-2-yl)amino)cyclohexanol]
PDGFRβ
  Kd: ≤ 50 nM
CSF1R
  IC50: ≤ 50 nM

## O[C@@H]1CCCC[C@H]1Nc1nc2ccc(Cn3cnc4cccnc43)cc2o1 [Example 56, (1R,2R)-2-((6-((3H-imidazo[4,5-b]pyridin-3-yl)methyl)benzo[d]oxazol-2-yl)amino)cyclohexanol]
PDGFRβ
  Kd: ≤ 50 nM
CSF1R
  IC50: 50 to 200 nM

## O[C@@H]1Cc2ccccc2[C@H]1Nc1nc2ccc(Cn3cnc4cccnc43)cc2o1 [Example 57, (1R,2R)-1-((6-((3H-imidazo[4,5-b]pyridin-3-yl)methyl)benzo[d]oxazol-2-yl)amino)-2,3-dihydro-1H-inden-2-ol]
PDGFRβ
  Kd: ≤ 50 nM
CSF1R
  IC50: 50 to 200 nM

## ON=C1CCCC[C@H]1Nc1nc2ccc(Cn3cnc4cccnc43)cc2s1 [Example 58, (R)-2-((6-((3H-imidazo[4,5-b]pyridin-3-yl)methyl)benzo[d]thiazol-2-yl)amino)cyclohexanone oxime]
PDGFRβ
  Kd: ≤ 50 nM
CSF1R
  IC50: 50 to 200 nM

## O[C@@H]1CCCC[C@H]1Nc1nc2ccc(Cn3cnc4cc(Br)cnc43)cc2o1 [Example 61, (1R,2R)-2-((6-((6-bromo-3H-imidazo[4,5-b]pyridin-3-yl)methyl)benzo[d]oxazol-2-yl)amino)cyclohexanol]
PDGFRβ
  Kd: ≤ 50 nM
CSF1R
  IC50: ≤ 50 nM

## O[C@@H]1Cc2ccccc2[C@H]1Nc1nc2ccc(Cn3cnc4cc(Br)cnc43)cc2o1 [Example 62, (1R,2R)-1-((6-((6-bromo-3H-imidazo[4,5-b]pyridin-3-yl)methyl)benzo[d]oxazol-2-yl)amino)-2,3-dihydro-1H-inden-2-ol]
PDGFRβ
  Kd: ≤ 50 nM
CSF1R
  IC50: ≤ 50 nM

## OC[C@@H](Nc1nc2ccc(Cn3cnc4cccnc43)cc2s1)C1CCCCC1 [Example 63, (S)-2-((6-((3H-imidazo[4,5-b]pyridin-3-yl)methyl)benzo[d]thiazol-2-yl)amino)-2-cyclohexylethanol]
PDGFRβ
  Kd: ≤ 50 nM
CSF1R
  IC50: 50 to 200 nM

## OC[C@H](Nc1nc2ccc(Cn3cnc4cccnc43)cc2s1)C1CCCCC1 [Example 64, (R)-2-((6-((3H-imidazo[4,5-b]pyridin-3-yl)methyl)benzo[d]thiazol-2-yl)amino)-2-cyclohexylethanol]
PDGFRβ
  Kd: ≤ 50 nM
CSF1R
  IC50: 200 to 500 nM
